Consider one compound from patent US20080025916A1, “Tailored Treatment Suitable for Different Forms of Mastocytosis” (AB Science, priority 2003, published 2008).

Assay [1] deals with lymphoid BaF/3 murine cell line transfected with the D816V mutant form of the human c-kit. Briefly: proliferation of BaF/3 cells transfected with D816V c-kit. The format is cell-based. As to conditions: not affected up to 1 microM, inhibited above 1 microM as in BMMC. As for the experimental part: (§1) At 24, 48 and 72 hours, the number of viable cells was determined in each condition using the trypan blue exclusion assay.

Assay [2] concerns juxtamembrane mutated c-kit. As to conditions: shown in WO 02/080925; cited from earlier work.
The next assay concerns the target c-kit wild (Homo sapiens, UniProt P10721). As to conditions: shown in WO 02/080925; cited from earlier work.
Assay [3] concerns mouse bone marrow-derived mast cell line (BMMC) expressing the mutant D816V form of the human c-kit. Briefly: proliferation of BMMC line, viable cell count by trypan blue exclusion assay. The format is cell-based. As to conditions: 24, 48 and 72 hours. As for the experimental part: as §1
Assay [4] concerns the target 816 mutated c-kit (D816V mutant form of the human c-kit receptor) (Homo sapiens, UniProt P10721, D816V). As to the method:
as §1

Sequence of 816 mutated c-kit (D816V mutant form of the human c-kit receptor) (P10721 26-976 D816V): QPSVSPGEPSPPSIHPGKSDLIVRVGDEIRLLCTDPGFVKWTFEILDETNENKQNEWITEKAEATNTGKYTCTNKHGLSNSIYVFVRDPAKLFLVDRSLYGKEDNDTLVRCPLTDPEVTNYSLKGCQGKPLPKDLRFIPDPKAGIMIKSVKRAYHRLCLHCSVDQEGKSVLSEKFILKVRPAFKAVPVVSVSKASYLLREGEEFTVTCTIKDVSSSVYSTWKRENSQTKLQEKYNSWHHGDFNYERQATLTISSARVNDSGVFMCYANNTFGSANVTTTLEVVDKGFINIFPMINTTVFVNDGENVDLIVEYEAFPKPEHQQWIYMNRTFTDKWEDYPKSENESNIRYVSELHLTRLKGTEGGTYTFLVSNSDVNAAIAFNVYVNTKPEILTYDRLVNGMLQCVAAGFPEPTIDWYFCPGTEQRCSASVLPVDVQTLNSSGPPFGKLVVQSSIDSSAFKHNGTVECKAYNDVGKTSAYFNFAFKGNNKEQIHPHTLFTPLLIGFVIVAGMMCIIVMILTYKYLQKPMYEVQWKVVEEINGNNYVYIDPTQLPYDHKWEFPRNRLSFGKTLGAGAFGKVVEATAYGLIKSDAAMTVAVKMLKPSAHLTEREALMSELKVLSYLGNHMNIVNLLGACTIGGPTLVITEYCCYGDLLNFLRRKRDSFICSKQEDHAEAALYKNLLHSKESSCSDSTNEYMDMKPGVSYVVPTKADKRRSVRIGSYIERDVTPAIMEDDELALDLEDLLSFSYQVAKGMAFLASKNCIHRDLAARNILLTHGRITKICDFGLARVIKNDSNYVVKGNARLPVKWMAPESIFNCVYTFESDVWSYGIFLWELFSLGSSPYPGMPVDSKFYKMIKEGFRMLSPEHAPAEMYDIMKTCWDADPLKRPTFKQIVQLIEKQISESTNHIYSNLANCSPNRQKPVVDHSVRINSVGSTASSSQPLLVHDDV
Sequence of c-kit wild (P10721 26-976): as the sequence (P10721 26-976 D816V) above, with V791D counted along it

As for `Cc1ccc(NC(=O)c2ccc(CN3CCN(C)CC3)cc2)cc1Nc1nccc(-c2cccnc2)n1` [STI571], the “proliferation of BaF/3 cells with D816V human c-kit (same result as BMMC)” value in assay [1] was “also observed”. In addition, the “activity on the juxtamembrane mutated c-kit” value in assay [2] is recorded as “very active”. For the same compound, at c-kit wild, the “activity on c-kit wild” value is “active”. Besides, the “proliferation of the BMMC line with the mutant D816V form of the human c-kit” value in assay [3] (STI-571 under or equal to 1 microM, FIG. 2) was “not affected”; in assay [3] (concentrations of STI-571 above 1 microM (up to 10^-5 M)), “dose- and time-dependently inhibited”. In addition, the “resistance of the D816V mutant form of the human c-kit receptor” value in assay [4] (pharmacological doses) is listed as “resistant”. Also, the “activity on 816 mutated c-kit” value in assay [4] (see FIGS. 1 and 2) is “not active”.
